{"source": "patent US10159268B2", "about": "“Reduced sodium food products” (GENERAL MILLS, INC., priority 2013, dated 2018)", "key": {"[1]": {"assay": "Na-solution DAP test: trained panel rates saltiness of compounds in sodium solution", "assay_type": "in vivo", "set-up": "key: DAP score; >3.1 indicates saltiness or salt enhancement", "settings": "single compound in sodium solution; best DAP score of tested concentrations 0.1, 1 and 10 ppm; DAP score greater than 3.1 indicates saltiness or salt enhancement", "experimental": "(§1) Briefly, each individual tested compound was placed in water and in sodium solution to test saltiness and saltiness enhancement potential. Tests in water were executed in a compound concentration of 10 ppm. Tests in sodium solution were executed in compound concentrations of 0.1, 1 and 10 ppm. Two control sodium solutions with known organoleptic salt intensities were provided as references for each test. The test for individual compounds was also conducted using simple broth instead of sodium solution. A number of compound combinations identified from the Na-solution DAP test were used for the broth DAP test. Tests were executed with a trained panel of 9-12 assessors. For Na-solution DAP tests, a DAP score of greater than 3.1 indicates saltiness or salt enhancement. The DAP score can be correlated with a sodium reduction potential by subtracting 3.1 from the DAP score. […] For broth DAP tests, a DAP score of greater than 7.6 indicates saltiness or salt enhancement. The DAP score can be correlated with a sodium reduction potential by subtracting 7.6 from the DAP score."}, "[2]": {"assay": "Broth DAP test: trained panel rates saltiness of compounds in simple broth", "assay_type": "in vivo", "set-up": "key: DAP score; >7.6 indicates saltiness or salt enhancement in broth", "settings": "single compound in simple broth; best DAP score of tested concentrations 0.1, 1 and 10 ppm; DAP score greater than 7.6 indicates saltiness or salt enhancement", "experimental": "as §1"}}}
{"compound": "CC1(C)CC2C1CCC1(C)CC2(O)CCC1O", "note": "(centres unmarked) [Compound 56, Senecrassidiol]", "values": [{"measurement": "DAP in Na-Sol.", "setting": "[1]", "value": 4}, {"measurement": "DAP in Broth", "setting": "[2]", "value": 7.7}]}
{"compound": "C=C[C@@]1(C)CC(=O)C2[C@]3(C)C(C[C@@H](O)[C@@]2(O)C1=O)C(C)(C)[C@H](OC(C)=O)[C@H](OC(C)=O)[C@@H]3OC(=O)c1ccccc1", "note": "(some centres unmarked) [Compound 32, Orthosiphol I]", "values": [{"measurement": "DAP in Na-Sol.", "setting": "[1]", "value": 3.5}, {"measurement": "DAP in Broth", "setting": "[2]", "value": 8.1}]}
{"compound": "C=CC(C)(O)CC/C=C(\\C)C(=O)OC1C(OCC2OC(OC(=O)C34CCC(C)(C)CC3C3=CCC5C6(C)CCC(OC7OC(COC8OCC(O)C(O)C8OC8OCC(O)C(O)C8O)C(O)C(O)C7O)C(C)(C)C6CCC5(C)C3(C)CC4O)C(OC3OC(C)C(OC4OCC(O)C(OC5OCC(O)C(O)C5O)C4O)C(O)C3O)C(OC(=O)/C(C)=C/CCC(C)(O)C=C)C2O)OC(C)C(O)C1O", "note": "(centres unmarked) [Compound 35]", "values": [{"measurement": "DAP in Na-Sol.", "setting": "[1]", "value": 3.7}, {"measurement": "DAP in Broth", "setting": "[2]", "value": 8.1}]}
{"compound": "COc1cc(CC(C)C(C)Cc2ccc(O)c(OC)c2)ccc1O", "note": "(centres unmarked) [Compound 49, Dihydrogualaretic acid]", "values": [{"measurement": "DAP in Na-Sol.", "setting": "[1]", "value": 3.6}, {"measurement": "DAP in Broth", "setting": "[2]", "value": 8.2}]}
{"compound": "CCCCCCCCCCNC(C)=O", "note": "[Compound 84, N-Decyl acetamide]", "values": [{"measurement": "DAP in Na-Sol.", "setting": "[1]", "value": 3.8}, {"measurement": "DAP in Broth", "setting": "[2]", "value": 8.1}]}
{"compound": "Brevifolin [Compound 53]", "values": [{"measurement": "DAP in Na-Sol.", "setting": "[1]", "value": 3.7}, {"measurement": "DAP in Broth", "setting": "[2]", "value": 8.5}]}
{"compound": "CC(C)(O)[C@@H](O)COc1c2ccoc2cc2oc(=O)ccc12", "note": "[Compound 63, Prangol]", "values": [{"measurement": "DAP in Na-Sol.", "setting": "[1]", "value": 3.5}, {"measurement": "DAP in Broth", "setting": "[2]", "value": 8.0}]}
{"compound": "C[C@]12CC[C@H](O)C[C@H]1CC[C@@H]1[C@@H]2CC[C@]2(C)[C@@H](C3=CC(=O)OC3)CC[C@]12O", "note": "[Compound 73, Digitoxigenin]", "values": [{"measurement": "DAP in Na-Sol.", "setting": "[1]", "value": 3.5}, {"measurement": "DAP in Broth", "setting": "[2]", "value": 8.0}]}
{"compound": "a pentadecatrienyl-1,3-benzenediol [Compound 10]", "values": [{"measurement": "DAP in Na-Sol.", "setting": "[1]", "value": 3.9}, {"measurement": "DAP in Broth", "setting": "[2]", "value": 7.9}]}
{"compound": "COc1cc(C[C@@H](CO)[C@H](CO)Cc2ccc(O[C@@H]3O[C@H](CO)[C@@H](O)[C@H](O)[C@H]3O)c(OC)c2)ccc1O", "note": "[Compound 48, Secoisolariciresinol; Secoisolariciresin-4-yl b-D-glucopyranoside]", "values": [{"measurement": "DAP in Na-Sol.", "setting": "[1]", "value": 3.7}, {"measurement": "DAP in Broth", "setting": "[2]", "value": 7.8}]}
{"compound": "COC1CC(OC2CCC3(C=O)C(CCC4C3CCC3(C)C(C5=CC(=O)OC5)CCC43O)C2)OC(C)C1OC1OC(CO)C(O)C(O)C1O", "note": "(centres unmarked) [Compound 76, Apobioside]", "values": [{"measurement": "DAP in Na-Sol.", "setting": "[1]", "value": 3.2}, {"measurement": "DAP in Broth", "setting": "[2]", "value": 8.0}]}
{"compound": "COc1cc2c(c(OC)c1OC)-c1c(cc3c(c1OC)OCO3)C[C@H](C)[C@@](C)(O)C2", "note": "[Compound 44, Schizandrol B; Gomisin A]", "values": [{"measurement": "DAP in Na-Sol.", "setting": "[1]", "value": 3.8}, {"measurement": "DAP in Broth", "setting": "[2]", "value": 8.6}]}
{"compound": "CC1CCC2(OC1)OC1CC3C4CCC5CC(OC6OC(CO)C(OC7OC(CO)C(O)C(OC8OC(CO)C(O)C(OC9OCC(O)C(O)C9O)C8O)C7O)C(OC7OCC(O)C(O)C7O)C6O)CCC5(C)C4CC(=O)C3(C)C1C2C", "note": "(centres unmarked) [Compound 37]", "values": [{"measurement": "DAP in Na-Sol.", "setting": "[1]", "value": 3.7}, {"measurement": "DAP in Broth", "setting": "[2]", "value": 8.1}]}
{"compound": "COc1cc(C2c3cc4c(cc3CC3COC(=O)C32)OCO4)cc(OC)c1OC", "note": "(centres unmarked) [Compound 59, Isoanthricin]", "values": [{"measurement": "DAP in Na-Sol.", "setting": "[1]", "value": 3.3}, {"measurement": "DAP in Broth", "setting": "[2]", "value": 7.9}]}
{"compound": "COc1c2ccoc2cc2oc(=O)ccc12", "note": "[Compound 62, Bergapten]", "values": [{"measurement": "DAP in Na-Sol.", "setting": "[1]", "value": 3.9}, {"measurement": "DAP in Broth", "setting": "[2]", "value": 8.0}]}
{"compound": "C=CCCCCCCCCCCCC(CC(O)COC(C)=O)OC(C)=O", "note": "(centres unmarked) [Compound 83, 16-Heptadecene-1,2,4-triol, 1,4-diacetate]", "values": [{"measurement": "DAP in Na-Sol.", "setting": "[1]", "value": 4.2}, {"measurement": "DAP in Broth", "setting": "[2]", "value": 8.1}]}
{"compound": "C/C=C(\\C)C(=O)O[C@H]1[C@H](O)[C@]2(CO)[C@H](O)C[C@]3(C)C(=CCC4[C@@]5(C)CC[C@H](O[C@@H]6O[C@H](C(=O)O)C(O[C@@H]7O[C@H](CO)[C@@H](O)[C@H](O)[C@H]7O)[C@H](O)[C@H]6O[C@@H]6O[C@H](CO)[C@@H](O)[C@H](O)[C@H]6O)[C@](C)(CO)C5CC[C@]43C)[C@@H]2CC1(C)C", "note": "(some centres unmarked) [Compound 34, Aesculioside A]", "values": [{"measurement": "DAP in Na-Sol.", "setting": "[1]", "value": 3.9}, {"measurement": "DAP in Broth", "setting": "[2]", "value": 7.7}]}
{"compound": "CC(C)CNC(=O)/C=C/C=C/CCCCCC/C=C/c1ccc2c(c1)OCO2", "note": "[Compound 15, Guineensine]", "values": [{"measurement": "DAP in Na-Sol.", "setting": "[1]", "value": 3.5}, {"measurement": "DAP in Broth", "setting": "[2]", "value": 8.1}]}
{"compound": "C[C@@H]1C[C@@H]2O[C@@]3(O[C@@H]2C(C)(C)O)C(O)[C@@]2(C)C4CCC5C(C)(C)[C@@H](OC6OC[C@H](O)[C@@H](O)[C@@H]6O)CC[C@@]56C[C@@]46CC[C@]2(C)C13", "note": "(stereo partly drawn) [Compound 41, Cimigoside; b-D-Xylopyranoside]", "values": [{"measurement": "DAP in Na-Sol.", "setting": "[1]", "value": 3.9}, {"measurement": "DAP in Broth", "setting": "[2]", "value": 7.5}]}
{"compound": "CCCC(=O)c1c(OC)cc(OC)c(CCO)c1O", "note": "[Compound 54]", "values": [{"measurement": "DAP in Na-Sol.", "setting": "[1]", "value": 3.4}, {"measurement": "DAP in Broth", "setting": "[2]", "value": 8.1}]}
{"compound": "CC(=O)O[C@@H]1C[C@H]2C(C)(C)C(=O)C=C[C@]2(C)[C@H]2CC[C@]3(C)C(=CC(=O)[C@H]3c3ccoc3)[C@@]21C", "note": "[Compound 74, Azadiradione]", "values": [{"measurement": "DAP in Na-Sol.", "setting": "[1]", "value": 3.2}, {"measurement": "DAP in Broth", "setting": "[2]", "value": 7.7}]}
{"compound": "C/C=C(\\C)C(=O)O[C@H]1C[C@@H](OC(C)=O)[C@@]2(C)CO[C@@H]3C2[C@@]1(C)[C@@H](CC(=O)OC)[C@]1(C)C2=C(C)[C@H](c4ccoc4)C[C@H]2O[C@H]31", "note": "(some centres unmarked) [Compound 58, Salannin]", "values": [{"measurement": "DAP in Na-Sol.", "setting": "[1]", "value": 3.3}, {"measurement": "DAP in Broth", "setting": "[2]", "value": 8.0}]}
